These results are taken from US11679107B2 (Eisai R&D Management Co., Ltd., priority 2018, dated 2023).

The subject of assay [1] is Ad2 variant pre-mRNAs spliced in HeLa S3 nuclear extracts. The assay is described as follows: In vitro splicing assay (IVS), RT-qPCR of spliced product. It counts as biochemical. Particulars: for IC50: geometric mean; for Ratio Ad2.1/2.2: ratio of IVS IC50 Ad2.1 to Ad2.2. The procedure, abridged: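 Ad2 variant pre-mRNA (2 ng) with FTZΔi control RNA in HeLa S3 nuclear extract (8 μg) was pre-incubated with compound or DMSO for 15 min at 30 °C. Splicing ran 90 min at 30 °C after adding 0.5 mM ATP, creatine phosphate and MgCl2. Spliced product was quantified by TaqMan RT-qPCR, normalized to DMSO, and curve-fitted.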
Background: Real-time PCR tracks product formation cycle by cycle.

For assay [2], the system named is NCI-H1568 cells (high MCL1). The experiment in a line: Cell proliferation and viability, CellTiter-Glo, 72 hours. Particulars: NCIH1568.1; for CTGlo-ATS Mean MinResponse % 72 h NCIH1568.1: -100% = cidal, 0% = static, 100% = uninhibited growth; for GI50: geometric mean. It counts as cell-based. The procedure, abridged:
(§1)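 Cells grown in RPMI-1640 with 10% FBS (Panc line with added insulin and FBS to 15%) were exposed to an 11-point half-log dilution series, typically 10 μM-100 pM, at 0.1% final DMSO. After incubation at 37° C, 5% CO2, ATP content was measured by luminescence and normalized to a time-zero plate and DMSO wells.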
A general note: Cellular ATP, detected with luciferase, serves as a proxy for viable cell number.

Assay [3] has as its system Panc 05.04 cells (SF3b K700E mutant). The assay is described as above. It counts as cell-based. Particulars: PANC0504.1; for CTGlo-ATS Mean MinResponse % 72 h PANC0504.1: -100% = cidal, 0% = static, 100% = uninhibited growth; for GI50: geometric mean. The procedure, abridged:
as §1

A further assay deals with T1, SF3b complexes (Homo sapiens, UniProt O75533+Q7RTV0).
T1 construct: endogenous in cells; host or cells: Nuclear extracts; A HeLa S3 extract preparation is described for the in vitro splicing assay
The assay is described as follows: Scintillation proximity assay (SPA) with [3H]-labelled pladienolide probe. It counts as binding. Particulars: SF3B1 (WT); geometric mean; read-out: SPA-ATS GMean IC50 (nM) SF3B1 (WT). The procedure, abridged:
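SF3b complexes captured from nuclear extracts on anti-SF3B1 antibody SPA beads; test compounds pre-incubated 30 min before 2.5 nM [3H]-pladienolide probe added, then 30 min incubation. Bound probe read by scintillation; values from non-linear regression of concentration–response curves.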
(In a scintillation proximity assay essentially only radioactivity close to the scintillant gives light.)

Setting [4] is: Ad2.1 pre-mRNA substrate, read-out: qPCR-IVS-ATS GMean IC50 (nM) Ad2.1.
Where [5] appears, read: Ad2.2 pre-mRNA substrate, read-out: qPCR-IVS-ATS GMean IC50 (nM) Ad2.2.
[6] abbreviates: NCI-H1568, read-out: CTGlo-ATS GMean GI50 (nM) 72 h NCIH1568.1, 72 h.
[7] abbreviates: Panc 05.04, read-out: CTGlo-ATS GMean GI50 (nM) 72 h PANC0504.1, 72 h.

Structures are written as SMILES. Like-named read-outs stand apart in the source and are kept apart here.

Regarding `C/C(=C\c1cc(F)cc(S(=O)(=O)N2CCCC2)c1)[C@H]1OC(=O)C[C@H](O)CC[C@H](C)[C@@H](OC(=O)N2CCN(C)CC2)/C=C/[C@@H]1C` [Compound 197, [(2S,3S,4E,6R,7S,10R)-2-[(E)-1-(3-fluoro-5-pyrrolidin-1-ylsulfonylphenyl)prop-1-en-2-yl]-10-hydroxy-3,7-dimethyl-12-oxo-1-oxacyclododec-4-en-6-yl] 4-methylpiperazine-1-carboxylate], the figures for the IC50 (in assay [1] (setting [4]); in assay [1] (setting [5]); at SF3b complexes) were 98.5 nM, 22.8 nM and 2.67 nM, respectively. Besides, the “Ratio Ad2.1/2.2” value in assay [1] stood at 4.318. Moreover, the “CTGlo-ATS Mean MinResponse % 72 h NCIH1568.1” value in assay [2] (72 h) was −69.290%. For the same molecule, the GI50 in assay [2] (NCI-H1568, 72 h, read-out: CTGlo-ATS GMean GI50 (nM) 72 h NCIH1568.1, 72 h) came out at 4.69 nM; in assay [3] (Panc 05.04, 72 h, read-out: CTGlo-ATS GMean GI50 (nM) 72 h PANC0504.1, 72 h) it was 3.53 nM. Also, the “CTGlo-ATS Mean MinResponse % 72 h PANC0504.1” value in assay [3] (72 h) is −91.100%.

As to `C/C(=C\c1cccc(S(=O)(=O)N2CCC2)c1)[C@H]1OC(=O)C[C@H](O)CC[C@H](C)[C@@H](OC(=O)N2CCN(C)CC2)/C=C/[C@@H]1C` [Compound 198, [(2S,3S,4E,6R,7S,10R)-2-[(E)-1-[3-(azetidin-1-ylsulfonyl)phenyl]prop-1-en-2-yl]-10-hydroxy-3,7-dimethyl-12-oxo-1-oxacyclododec-4-en-6-yl] 4-methylpiperazine-1-carboxylate], the figures for the IC50 (in assay [1] (setting [4]); in assay [1] (setting [5]); on SF3b complexes) were 2390 nM, 43.2 nM and 7.82 nM, respectively. Moreover, in assay [1], the “Ratio Ad2.1/2.2” value is 55.224. For the same molecule, the “CTGlo-ATS Mean MinResponse % 72 h NCIH1568.1” value in assay [2] (72 h) is listed as −56.095%. Further, the GI50 stood at 15.5 nM in assay [2] (setting [6]) and 21.7 nM in assay [3] (setting [7]). In addition, the “CTGlo-ATS Mean MinResponse % 72 h PANC0504.1” value in assay [3] (72 h) is −96.773%.

`C/C(=C\c1cccc(S(=O)(=O)N2CC[C@@H](O)C2)c1)[C@H]1OC(=O)C[C@H](O)CC[C@H](C)[C@@H](OC(=O)N2CCN(C)CC2)/C=C/[C@@H]1C` [Compound 199, [(2S,3S,4E,6R,7S,10R)-10-hydroxy-2-[(E)-1-[3-[(3R)-3-hydroxypyrrolidin-1-yl]sulfonylphenyl]prop-1-en-2-yl]-3,7-dimethyl-12-oxo-1-oxacyclododec-4-en-6-yl] 4-methylpiperazine-1-carboxylate]: the results for the IC50 (in assay [1] (setting [4]); in assay [1] (setting [5]); at SF3b complexes) were 1820 nM, 47.2 nM and 8.99 nM, respectively. Moreover, the “Ratio Ad2.1/2.2” value in assay [1] is 38.638. In assay [2] (72 h), the “CTGlo-ATS Mean MinResponse % 72 h NCIH1568.1” value is given as −52.026%. In addition, the figures for the GI50 in assay [2] (setting [6]) and in assay [3] (setting [7]) were 22.9 nM and 33.8 nM, respectively. The “CTGlo-ATS Mean MinResponse % 72 h PANC0504.1” value in assay [3] (72 h) is −95.445%.

Take `C/C(=C\c1cccc(S(=O)(=O)NC(C)(C)CO)c1)[C@H]1OC(=O)C[C@H](O)CC[C@H](C)[C@@H](OC(=O)N2CCN(C)CC2)/C=C/[C@@H]1C` [Compound 201, [(2S,3S,4E,6R,7S,10R)-10-hydroxy-2-[(E)-1-[3-[(1-hydroxy-2-methylpropan-2-yl)sulfamoyl]phenyl]prop-1-en-2-yl]-3,7-dimethyl-12-oxo-1-oxacyclododec-4-en-6-yl] 4-methylpiperazine-1-carboxylate]: the IC50 is 620 nM in assay [1] (setting [4]), 17.5 nM in assay [1] (setting [5]) and 5.64 nM at SF3b complexes. Further, the “Ratio Ad2.1/2.2” value in assay [1] is given as 35.485. Besides, the “CTGlo-ATS Mean MinResponse % 72 h NCIH1568.1” value in assay [2] (72 h) is given as −48.055%. Further, the GI50 in assay [2] (setting [6]) was found to be 27.5 nM; in assay [3] (setting [7]), 40.9 nM. The “CTGlo-ATS Mean MinResponse % 72 h PANC0504.1” value in assay [3] (72 h) is on record as −91.697%.

On to `C/C(=C\c1cccc(S(=O)(=O)N2CCC(F)(F)CC2)c1)[C@H]1OC(=O)C[C@H](O)CC[C@H](C)[C@@H](OC(=O)N2CCN(C)CC2)/C=C/[C@@H]1C` [Compound 202, [(2S,3S,4E,6R,7S,10R)-2-[(E)-1-[3-(4,4-difluoropiperidin-1-yl)sulfonylphenyl]prop-1-en-2-yl]-10-hydroxy-3,7-dimethyl-12-oxo-1-oxacyclododec-4-en-6-yl] 4-methylpiperazine-1-carboxylate], for which the IC50 in assay [1] (setting [4]) is 4470 nM; in assay [1] (setting [5]) it was 25.2 nM; on SF3b complexes, 14.1 nM. Further, the “Ratio Ad2.1/2.2” value in assay [1] worked out at 177.387. For the same molecule, the “CTGlo-ATS Mean MinResponse % 72 h NCIH1568.1” value in assay [2] (72 h) is given as −59.083%. For the same molecule, the GI50 in assay [2] (setting [6]) worked out at 29.4 nM; in assay [3] (setting [7]) it was 24.7 nM. Also, the “CTGlo-ATS Mean MinResponse % 72 h PANC0504.1” value in assay [3] (72 h) is listed as −93.824%.

What is called IC50 is the midpoint of a concentration-inhibition curve. Usually GI50 stands for the concentration giving 50% growth inhibition.
